This passage reports EC50, ED50 and activation results from patent US4617393A, “5-substituted-6-aminopyrimidines, composition and uses as cardiotonic agents for increasing cardiac contractility” (American Home Products Corporation, priority 1985, dated 1986).

Assay [1] concerns Isolated Cat Papillary Muscle. Nature of the assay: Test for Cardiotonic Activity in Isolated Cat Papillary Muscle. Format: cell-based. The settings on record: Felis catus; for EC50: increase in force of contraction, stimulated at 0.5 Hz, 37° C.; for activation at 100 µM: read-out: % increase (force of contraction). On the procedure:
Test for Cardiotonic Activity in Isolated Cat Papillary Muscle
A cat of either sex was anesthetized with Na pentobarbital, 25-30 mg/kg i.v. The heart was rapidly removed and placed in cool Tyrode's solution which had been equilibrated with 95% O2 -5% CO2. The right ventricle was opened by cutting down the sides and around the apex so that the free wall could be folded back on the atriventricular groove. Usually at least three suitably-sized papillary muscles were found (1 mm or less in thickness). Threads were tied around the chordae tendonae and the base of the muscle just above its point of insertion into the ventricular wall. The chordae were cut, and the muscle was removed along with a small button of ventricular wall. If a sufficient number of papillary muscles were not present, trabeculae carnae could also be used. The best ones were usually found inserting just under the valve.
The preparations were mounted in tissue baths containing Tyrode's solution at 37° C. bubbled with 95% O2 -5% CO2. One thread was affixed to a tissue holder incorporating a pair of platinum electrodes and the other thread was attached to a force displacement transducer. Initial tension placed on the preparation was 0.2 g (less for very small muscles). The preparations were stimulated with square-wave pulses, 2-4 msec. in duration and 10% above threshold voltage, at a rate of 0.5 Hz. […] The preparations were then allowed to equilibrate for one hour with frequent changes of the bathing fluid (10-15 min. intervals). The test compound was added to the bath in 0.1 mL of vehicle and incubated with the preparation for 15 min. or until peak effect was attained.
Using this method, the following representative compounds of formula I were effective for increasing the force of contraction of the papillary muscle.

Assay [2] concerns Pentobarbital-Induced Cardiac Failure in the Dog. Nature of the assay: Pentobarbital-induced Cardiac Failure in the Dog. Format: in vivo. The following applies: Canis lupus familiaris, iv, anesthetized dog, read-out: ED50 (dose i.v. to give a 50% increase in dP/dt). The method, then:
Pentobarbital-induced Cardiac Failure in the Dog
A dog of either sex was anesthetized with Na pentobarbital, 30-35 mg/kg i.v. The trachea was intubated and the animal was respired at a rate of 20 breaths/min (stroke volume=15 cc/kg). Both femoral veins were cannulated. One cannula was used for infusion of pentobarbital to induce and maintain failure, the other for injection of test compounds. A cannual was inserted into the aorta via a femoral artery and the cannula was attached to a blood pressure transducer for measurement of systolic, diastolic and mean aortic blood pressure. A Millar pressure-tip catheter was inserted into the other femoral artery and advanced into the left ventricle to record intraventricular pressure and dP/dt. Subdermal needle electrodes were used to record a lead II electrocardiogram and heart rate.
Following a stabilization period of at least 30 min, experimental failure was induced by the i.v. infusion of Na pentobarbital, 0.75 mg/kg/min in 0.2 mL of saline/min, until a 40-50% decrease in peak positive dP/dt was obtained. The failure state was maintained at this level throughout the experiment by continuous infusion of Na pentobarbital, 0.11-0.15 mg/kg/min. Once the maintenance infusion was started, at least 15 min were allowed to elapse before test drugs were administered.
Test compounds were prepared in N saline. Increasingly higher doses were given i.v. at 30 min-1 hr intervals in order to determine a therapeutic (50% increase in dP/dt) to toxic (appearance of arrhythmias) ratio where possible.
Using this method, the following representative compounds of formula I were effective for increasing the cardiac contractility of the heart (the amount of test compound in mg per kg of body weight administered i.v. to give a 50% increase in dP/dt.

Where two headings read alike, the source gives them in different places.

On to `CCNc1nc(C)nc(O)c1C` [Example 12, 6-(Ethylamino)-2,5-dimethyl-4-pyrimidinol], for which, in assay [1], the response was half-maximal at 5 µM (EC50). For the same compound, the ED50 in assay [2] worked out at 0.04 mg/kg.
Take `Cc1nc(O)c(Br)c(NCCO)n1` [Example 16, 5-Bromo-6-[(2-hydroxyethyl)amino]-2-methyl-4-pyrimidinol]: a half-maximal response in assay [1] (EC50) required 8.2 µM.
With `Cc1nc(O)c(Br)c(NCc2cccnc2)n1` [Example 1, 5-Bromo-2-methyl-6-[(3-pyridinylmethyl)amino]-4-pyrimidinol], a half-maximal response in assay [1] (EC50) required 2.5 µM. The ED50 in assay [2] was determined as 0.012 mg/kg.
As to `Cc1nc(O)c(C(C)C)c(NCC2CC2)n1` [Example 17, 6-[(Cyclopropylmethyl)amino]-2-methyl-5-(1-methylethyl)-4-pyrimidinol], in assay [1] (at 10^-4 M), the activation at 100 µM was 185%. Further, the ED50 in assay [2] turned out to be 0.5 mg/kg.
For `Cc1nc(=O)c(F)c(NCc2cccnc2)[nH]1` [Example 6, 5-Fluoro-1,4-dihydro-2-methyl-6-[(3-pyridinylmethyl)amino]-4-pyrimidinone], the activation at 100 µM in assay [1] (at 10^-4 M) came to 69%.
Turning to `Cc1nc(O)c(Cl)c(NCCc2ccccc2)n1` [Example 4, 5-Chloro-2-methyl-6-[(2-phenylethyl)amino]-4-pyrimidinol], it took 1.5 µM to reach a half-maximal effect in assay [1] (EC50). The ED50 in assay [2] was found to be 0.04 mg/kg.
In the case of `Cc1nc(=O)c(C)c(NCCc2cccn2C)[nH]1` [Example 2, 1,4-Dihydro-2,5-dimethyl-6-[[2-(1-methyl-1H-pyrrol-2-yl)ethyl]amino]-4-pyrimidinone], in assay [1], the EC50 (as a rule, the concentration needed to bring the measured effect to its halfway point) came to 2.9 µM.
Compound `Cc1nc(O)c(Cl)c(NCc2cccnc2)n1` [Example 3, 5-Chloro-2-methyl-6-[(3-pyridinylmethyl)amino]-4-pyrimidinol] showed an EC50 in assay [1] of 1 µM. For the same compound, the ED50 in assay [2] stood at 0.02 mg/kg.
Regarding `CCNc1nc(C)nc(O)c1C(C)C` [Example 14, 6-(Ethylamino)-2-methyl-5-(1-methylethyl)-4-pyrimidinol], in assay [1] (at 10^-4 M), the activation at 100 µM is 86%. In addition, the ED50 in assay [2] turned out to be 0.04 mg/kg.
The compound `Cc1nc(O)c(Br)c(NCCc2ccncc2)n1` [Example 10, 5-Bromo-2-methyl-6-[[2-(4-pyridinyl)ethyl]amino]-4-pyrimidinol] gave an EC50 in assay [1] (unit inferred) of 250 µM.
`Cc1nc(O)c(Br)c(NCCc2ccccc2)n1` [Example 9, 5-Bromo-2-methyl-6-[(2-phenylethyl)amino]-4-pyrimidinol]: the EC50 in assay [1] (unit inferred) is 13 µM. Besides, the ED50 in assay [2] stood at 0.03 mg/kg.
The compound `Cc1nc(O)c(C(C)C)c(NCc2cccnc2)n1` [Example 7, 2-Methyl-5-(1-methylethyl)-6-[(3-pyridinylmethyl)amino]-4-pyrimidinol] yielded an EC50 in assay [1] of 7.4 µM. Besides, in assay [2], the ED50 is 0.13 mg/kg.
Turning to `Cc1nc(O)c(C)c(NCCc2ccncc2)n1` [Example 8, 2,5-Dimethyl-6-[(2-(4-pyridinyl)ethyl)amino]-4-pyrimidinol], in assay [1] (at 10^-4 (unit inferred)), the activation at 100 µM is 52%.
In the case of `Cc1nc(=O)c(C)c(NCc2cccnc2)[nH]1` [Example 5, 1,4-Dihydro-2,5-dimethyl-6-[(3-pyridinylmethyl)amino]-pyrimidine-4-one], the EC50 in assay [1] is 11 µM. Also, in assay [2], the ED50 came out at 0.05 mg/kg.
The corresponding values for `Cc1nc(O)c(C)c(NCC2CC2)n1` [Example 13, 6-[(Cyclopropylmethyl)amino]-2,5-dimethyl-4-pyrimidinol] are 3.7 µM and 0.05 mg/kg.
The corresponding values for `CCNc1[nH]c(C)nc(=O)c1Br` [Example 15, 5-Bromo-1,4-dihydro-6-(ethylamino)-2-methyl-4-pyrimidinone] are 2.8 µM and 0.01 mg/kg.
The compound `Cc1nc(O)c(C)c(NCc2ccco2)n1` [Example 11, 6-[(2-Furanylmethyl)amino]-2,5-dimethyl-4-pyrimidinol] showed an EC50 in assay [1] of 10 µM.
